From publication PMC2113781 (The Journal of Cell Biology, 1985)
Where “and” joins values, the source holds several entries; their conditions need not be identical. Equal values may be shown once.

How the values were obtained:
[1] = system: muscarinic cholinergic receptor; type: cell-based, chick
[2] = system: muscarinic binding sites; set-up: species or system chick

SMILES | Effect relative to acetylcholine [1] [%] | agonistic effect on Ca2+ mobilization [1] | RH, two-sites model [2] | RL, two-sites model [2] | nH, phenomenological cooperativity model (Hill coefficient) [2] | type of antagonism [1]
CC(=O)OCC[N+](C)(C)C [Acetylcholine, acetylcholine] | 100 | full agonists | 15.3 pmol/L and 20.9 pmol/L | 13.8 pmol/L and 19.4 pmol/L | 0.41 and 0.39 | –
CN1[C@@H]2CC[C@H]1C[C@@H](OC(=O)C(CO)c1ccccc1)C2 (some centres unmarked) [Atropine, atropine] | – | – | – | – | 0.79 | –
CC(C[N+](C)(C)C)OC(N)=O (centres unmarked) [Bethanechol, bethanechol] | 23 | partial agonist | 9.1 pmol/L | 19.9 pmol/L | 0.65 | reversible competitive antagonists
C[N+](C)(C)CCOC(N)=O [Carbachol, carbachol] | 92 | full agonists | 14.6 pmol/L | 18.4 pmol/L | 0.41 | –
O=C1CC[C@@](c2ccccc2)(C2CCN(Cc3ccccc3)CC2)C(=O)N1 [Dexetimide, dexetimide] | – | – | – | – | 0.63 | irreversible competitive antagonists
O=C1CC[C@](c2ccccc2)(C2CCN(Cc3ccccc3)CC2)C(=O)N1 [Levetimide, levetimide] | – | – | – | – | 0.76 | reversible competitive antagonists
O=C1CCCN1CC#CCN1CCCC1 [Oxotremorine, oxotremorine] | – | No reaction | – | – | 0.95 | reversible competitive antagonists
CC[C@@H]1C(=O)OC[C@@H]1Cc1cncn1C [Pilocarpine, pilocarpine] | – | No reaction | – | – | 0.68 | reversible competitive antagonists
CN1CCN(CC(=O)N2c3ccccc3C(=O)Nc3cccnc32)CC1 [Pirenzepine, pirenzepine] | – | – | – | – | 1.31 | reversible competitive antagonists
